In ChEMBL document CHEMBL1201862, “PubChem BioAssay data set” (2004):
The source made the active and inactive calls. No stated cut-off is given here; in the data, actives have a measured IC50 and inactives only a lower limit.

Target: Envelope glycoprotein gp160 (Human immunodeficiency virus 1, UniProt Q6QLK5)
Assay: inhibitors of HIV fusion peptide binding, primary screen, biochemical, uHTS, fluorescence dequenching (AID 1986)

Envelope glycoprotein gp160, sequence (Q6QLK5 whole entry, the tested form may be a part): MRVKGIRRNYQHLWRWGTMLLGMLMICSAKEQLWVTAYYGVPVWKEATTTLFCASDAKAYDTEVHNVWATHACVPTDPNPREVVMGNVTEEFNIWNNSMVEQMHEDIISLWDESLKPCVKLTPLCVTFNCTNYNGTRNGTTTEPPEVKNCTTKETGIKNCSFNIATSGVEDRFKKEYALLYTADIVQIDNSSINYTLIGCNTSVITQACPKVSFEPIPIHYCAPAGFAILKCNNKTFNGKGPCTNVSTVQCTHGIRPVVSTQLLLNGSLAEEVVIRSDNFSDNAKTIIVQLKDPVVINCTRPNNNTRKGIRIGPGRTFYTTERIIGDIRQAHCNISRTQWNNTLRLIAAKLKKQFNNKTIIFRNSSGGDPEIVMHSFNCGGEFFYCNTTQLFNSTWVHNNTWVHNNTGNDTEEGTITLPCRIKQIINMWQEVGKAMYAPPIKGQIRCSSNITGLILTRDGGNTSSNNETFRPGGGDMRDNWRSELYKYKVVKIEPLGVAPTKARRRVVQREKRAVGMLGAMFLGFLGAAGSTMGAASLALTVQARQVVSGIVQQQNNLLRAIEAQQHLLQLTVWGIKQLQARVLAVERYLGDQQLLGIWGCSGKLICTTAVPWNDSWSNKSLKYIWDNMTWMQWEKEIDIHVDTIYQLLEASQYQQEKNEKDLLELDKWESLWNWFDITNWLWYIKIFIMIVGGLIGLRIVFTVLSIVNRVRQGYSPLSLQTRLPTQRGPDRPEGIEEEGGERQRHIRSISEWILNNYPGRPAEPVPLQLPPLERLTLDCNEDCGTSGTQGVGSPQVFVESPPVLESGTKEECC

O=C(O)CSc1cc(C(=O)c2cc(F)ccc2O)cn2c(=O)c3c(-c4ccccc4)csc3nc12
IC50: 14.9 µM (active)

N#Cc1c(-c2cccs2)nc(SCc2ccc(Cl)cc2)[nH]c1=O
IC50: 11.1 µM (active)
